We go through 26 compounds from article PMC11784839, “Monoaminergic neurotransmitters are bimodal effectors of tau aggregation” (Science Advances, 2025).

The structures appear in SMILES notation.

The assay deals with tau (Homo sapiens, UniProt P10636). Briefly: MCE Phenols Library screening, tau biosensor cell seeding assay (AvZ). In kind it is cell-based. As to conditions: for Z repl 1 / Z Repl 2: Z score; for Z repl 1 / raw data 1: replicate 1; for Z Repl 2 / raw data 2: replicate 2; for AvZ (average z score of seeding, SDs from the mean level of seeding): 10 μM phenol in cell cultures, AD brain homogenate preincubated 16 hours, two biological replicates, positive = catalyzes seeding, negative = inhibits.
tau, sequence (P10636 623-695 limits assumed): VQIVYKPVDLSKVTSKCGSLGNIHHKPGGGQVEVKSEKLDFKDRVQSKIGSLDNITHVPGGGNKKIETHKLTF

[1] abbreviates: average Z score of two replicates, Phenols Library screen.
The mark [2] stands for this setting: average Z score of the two replicates, MCE Phenols Library screen.
Setting [3] is: average puncta of the two replicates.
Where [4] appears, read: average Z score of the two replicates, tau seeding.

For the compound `CC(Cc1ccc(O)c(O)c1)C(C)Cc1ccc(O)c(O)c1` (stereo not drawn) [Nordihydroguaiaretic acid], the “Z repl 1” value is listed as -0.326 and the “Z Repl 2” value is 0.012. Besides, the “av Z” value under setting [1] is listed as -0.157. The compound further returned an av puncta (average of raw data 1 and 2) of 17666.9. Besides, for the setting “puncta”, the “raw data 1” value is 22434.9 and the “raw data 2” value was determined as 12898.9.

In the case of `Cc1cc(=O)c2c(O)cc(O)cc2o1` [Noreugenin], the “Z repl 1” value is listed as -0.363 and the “Z Repl 2” value was -0.457. Besides, the “av Z” value under setting [2] is given as -0.41. Besides, under setting [3], the av puncta is 14938. Where the note is “raw puncta”, the “raw data 1” value worked out at 21994.8 and the “raw data 2” value was found to be 7881.17.

In the case of `CC(C)(O)CCc1c(O)cc(O)c2c(=O)c(O)c(-c3ccc(O)cc3)oc12` [Noricaritin], the “AvZ (average z score of seeding, SDs from the mean level of seeding)” value (shortened to “AvZ”) is given as 0.399; the “Z repl 1” value was 0.56; the “Z Repl 2” value came out at 0.239. Also, the av puncta (average of raw data 1 and 2) is recorded as 24195.2. Besides, under “puncta”, the “raw data 1” value was 33071.8 and the “raw data 2” value is 15318.5.

Regarding `O=c1c2c(O)cc(O)cc2oc2c(O)ccc(O[C@@H]3O[C@H](CO)[C@@H](O)[C@H](O)[C@H]3O)c12` [Norswertianolin], the “Z repl 1” value is given as -0.236 and the “Z Repl 2” value is recorded as -0.647. Further, the “av Z” value under setting [2] is on record as -0.441. The compound further registered an av puncta under setting [3] of 14688.3. In addition, for the setting “raw puncta”, the “raw data 1” value is on record as 23518.4 and the “raw data 2” value is recorded as 5858.11.

Consider `O=c1cc(-c2ccccc2)oc2c(O)c(O)cc(O)c12` [Norwogonin], for which the “Z repl 1” value is listed as -0.966 and the “Z Repl 2” value is -0.652. Moreover, the “av Z” value under setting [2] is -0.809. Further, under “average of raw data 1 and 2”, the av puncta is 10276.7. Moreover, under “puncta”, the “raw data 1” value worked out at 14754.3 and the “raw data 2” value turned out to be 5799.06.

With `CC(C(=O)c1ccc(O)cc1O)c1ccc(O)cc1` (stereo not drawn) [O-Desmethylangolensin], the “Z repl 1” value was found to be 0.135 and the “Z Repl 2” value is -0.221. In addition, the “av Z” value under setting [1] is given as -0.043. This compound had an av puncta (average of raw data 1 and 2) of 19189.1. For the same compound, under “puncta”, the “raw data 1” value came out at 27969 and the “raw data 2” value amounted to 10409.2.

Consider `COc1c(O)c(C)cc2c1C(=O)c1c(O)cccc1C2=O` [Obtusifolin], for which the “Z repl 1” value is on record as -0.23 and the “Z Repl 2” value is on record as 0.069. Further, the “av Z” value under setting [1] was -0.081. In addition, the av puncta (average of raw data 1 and 2) was 18542. Where the note is “puncta”, the “raw data 1” value is listed as 23582.4 and the “raw data 2” value is reported as 13501.7.

Regarding `C[C@@H]1CC(=O)c2c(ccc3c2C(=O)c2cccc(O)c2C3=O)C1` [Ochromycinone], the “Z repl 1” value is given as -0.991 and the “Z Repl 2” value is listed as -0.213. The “av Z” value under setting [2] is reported as -0.602. Under setting [3], the av puncta is given as 12471.4. In addition, under “puncta”, the “raw data 1” value came out at 14447.4 and the “raw data 2” value is reported as 10495.4.

Regarding `COc1cc(CCC(O)CC(O)CCc2ccc(O)c(OC)c2)ccc1O` (stereo not drawn) [Octahydrocurcumin], the “Z repl 1” value is -0.643 and the “Z Repl 2” value was determined as 0.033. The “av Z” value under setting [2] was -0.305. For the same compound, the av puncta under setting [3] is recorded as 15871.9. Also, under “raw puncta”, the “raw data 1” value turned out to be 18628.3 and the “raw data 2” value came to 13115.6.

Consider `Cl.NCC(O)c1ccc(O)cc1` (stereo not drawn) [Octopamine (hydrochloride)], for which the “AvZ” value was -0.005; the “Z repl 1” value is listed as -0.187; the “Z Repl 2” value is recorded as 0.177. The compound also gave an av puncta (average of raw data 1 and 2) of 19376.3. For the same compound, under “puncta”, the “raw data 1” value was found to be 24099.8 and the “raw data 2” value came out at 14652.9.

Turning to `O=C(/C=C/c1ccc(O)c(O)c1)c1ccc(O)c(O)c1O` [Okanin], the “Z repl 1” value is -1.882 and the “Z Repl 2” value was -1.187. Besides, the “av Z” value under setting [2] is -1.534. Moreover, the av puncta (average of raw data 1 and 2) came to 1923.27. Further, where the note is “puncta”, the “raw data 1” value is listed as 3755.83 and the “raw data 2” value is reported as 90.703.

In the case of `COc1ccc(CC(=O)c2ccc(O)cc2O)cc1` [Ononetin], the “Z repl 1” value was -0.169 and the “Z Repl 2” value was 0.358. Moreover, the “av Z” value under setting [1] is 0.095. The compound also displayed an av puncta (average of raw data 1 and 2) of 20456.3. Further, for the setting “puncta”, the “raw data 1” value is listed as 24324.1 and the “raw data 2” value is recorded as 16588.6.

As to `Cc1cc(O)cc(O)c1` [Orcinol], the “AvZ” value is recorded as -0.839; the “Z repl 1” value is -1.362; the “Z Repl 2” value is -0.316. This compound also came in with an av puncta (average of raw data 1 and 2) of 9697.38. Also, where the note is “puncta”, the “raw data 1” value turned out to be 9999.31 and the “raw data 2” value was determined as 9395.45.

As for `O=c1cc(-c2ccc(O)c(O)c2)oc2c([C@@H]3O[C@H](CO)[C@@H](O)[C@H](O)[C@H]3O)c(O)cc(O)c12` [Orientin], the “Z repl 1” value is 0.558 and the “Z Repl 2” value is -0.368. Further, the “av Z” value under setting [1] is 0.095. For the setting “average of raw data 1 and 2”, the av puncta amounted to 20945. In addition, under “puncta”, the “raw data 1” value stood at 33050.1 and the “raw data 2” value is on record as 8839.87.

`O=c1cc(-c2ccccc2)oc2cc(O[C@@H]3O[C@H](CO[C@@H]4O[C@H](CO)[C@@H](O)[C@H](O)[C@H]4O)[C@@H](O)[C@H](O)[C@H]3O)c(O)c(O)c12` [Oroxin B]: the “Z repl 1” value is reported as -0.164 and the “Z Repl 2” value is recorded as -0.982. Also, the “av Z” value under setting [2] is -0.573. In addition, the av puncta under setting [3] is 13332. For the same compound, where the note is “puncta”, the “raw data 1” value is 24381.7 and the “raw data 2” value was 2282.35.

With `COc1c(O[C@@H]2O[C@H](C(=O)O)[C@@H](O)[C@H](O)[C@H]2O)cc2oc(-c3ccccc3)cc(=O)c2c1O` [Oroxylin A-7-O-glucuronide], the “Z repl 1” value is given as -0.296 and the “Z Repl 2” value turned out to be 0.55. Also, the “av Z” value under setting [4] is given as 0.127. Besides, the av puncta (average of raw data 1 and 2) was found to be 20714.9. Moreover, for the setting “puncta”, the “raw data 1” value worked out at 22792.7 and the “raw data 2” value was determined as 18637.

As for `COc1c(O)cc2oc(-c3ccccc3)cc(=O)c2c1O` [Oroxylin A], the “Z repl 1” value was -0.11 and the “Z Repl 2” value was -0.323. Under setting [2], the “av Z” value is -0.217. This compound also yielded an av puncta under setting [3] of 17171.6. Also, for the setting “raw puncta”, the “raw data 1” value amounted to 25029.5 and the “raw data 2” value is 9313.67.

`OC[C@H]1O[C@@H](Oc2cc(O)ccc2/C=C/c2cc(O)cc(O)c2)[C@H](O)[C@@H](O)[C@@H]1O` [Oxyresveratrol 2-O-?-D-glucopyranoside]: the “Z repl 1” value is given as -0.859 and the “Z Repl 2” value was found to be 0.047. In addition, under setting [2], the “av Z” value was -0.406. This compound had an av puncta under setting [3] of 14655.6. Besides, for the setting “raw puncta”, the “raw data 1” value was determined as 16039.6 and the “raw data 2” value was found to be 13271.6.

For the compound `Oc1cc(O)cc(/C=C/c2ccc(O)cc2O)c1` [Oxyresveratrol], the “Z repl 1” value is recorded as 0.048 and the “Z Repl 2” value was -0.792. Also, the “av Z” value under setting [2] is reported as -0.372. Moreover, the av puncta under setting [3] is on record as 15614.1. Further, where the note is “raw puncta”, the “raw data 1” value was found to be 26923.9 and the “raw data 2” value is 4304.18.

As for `COc1ccc(C(C)=O)c(O)c1` [Paeonol], the “AvZ” value was 0.272; the “Z repl 1” value came to 0.101; the “Z Repl 2” value was 0.444. The av puncta (average of raw data 1 and 2) turned out to be 22534.1. Also, under “puncta”, the “raw data 1” value is 27565 and the “raw data 2” value came out at 17503.1.

Take `O=C(O)CC(O)(CC(=O)OCc1ccc(O[C@@H]2O[C@H](CO)[C@@H](O)[C@H](O)[C@H]2O)cc1)C(=O)OCc1ccc(O[C@@H]2O[C@H](CO)[C@@H](O)[C@H](O)[C@H]2O)cc1` (stereo partly drawn) [Parishin B]: the “Z repl 1” value stood at 0.462 and the “Z Repl 2” value came out at 0.318. Under setting [4], the “av Z” value came to 0.39. Further, under “average of raw data 1 and 2”, the av puncta is reported as 24029.7. Further, where the note is “puncta”, the “raw data 1” value worked out at 31895.3 and the “raw data 2” value was 16164.

In the case of `O=C(O)CC(O)(CC(=O)OCc1ccc(O[C@@H]2O[C@H](CO)[C@@H](O)[C@H](O)[C@H]2O)cc1)C(=O)O` (stereo partly drawn) [Parishin E], the “Z repl 1” value is reported as -1.04 and the “Z Repl 2” value is -0.216. In addition, the “av Z” value under setting [2] is listed as -0.628. Moreover, under setting [3], the av puncta worked out at 12158.4. For the setting “puncta”, the “raw data 1” value turned out to be 13862 and the “raw data 2” value is 10454.8.

Take `COc1ccc(-c2cc(=O)c3c(O)c(OC)c(O)cc3o2)cc1` [Pectolinarigenin]: the “Z repl 1” value is -0.106 and the “Z Repl 2” value came out at 0.876. Also, the “av Z” value under setting [4] is listed as 0.385. The av puncta (average of raw data 1 and 2) is reported as 23601.4. Besides, for the setting “puncta”, the “raw data 1” value came out at 25077.3 and the “raw data 2” value amounted to 22125.4.

On to `COc1ccc(-c2cc(=O)c3c(O)c(OC)c(O[C@@H]4O[C@H](CO[C@@H]5O[C@@H](C)[C@H](O)[C@@H](O)[C@H]5O)[C@@H](O)[C@H](O)[C@H]4O)cc3o2)cc1` [Pectolinarin], for which the “Z repl 1” value is recorded as 0.677 and the “Z Repl 2” value was -0.144. Moreover, the “av Z” value under setting [4] was 0.266. For the setting “average of raw data 1 and 2”, this compound came in with an av puncta of 22850.6. In addition, where the note is “puncta”, the “raw data 1” value is given as 34472.8 and the “raw data 2” value came to 11228.4.

Take `O=C(O)Cc1cc(O)ccc1O[C@@H]1O[C@H](CO)[C@@H](O)[C@H](O)[C@H]1O` [Phaseoloidin]: the “Z repl 1” value is recorded as -0.056 and the “Z Repl 2” value is on record as -0.658. Besides, the “av Z” value under setting [2] is -0.357. Under setting [3], the av puncta is reported as 15704.2. Besides, for the setting “raw puncta”, the “raw data 1” value came out at 25674.3 and the “raw data 2” value was found to be 5734.06.

Take `COc1cc2c(cc1O)C[C@H]1c3cc(O)c(OC)cc3CC[N@@+]1(C)C2.[Cl-]` [Phellodendrine (chloride)]: the “Z repl 1” value is 0.263 and the “Z Repl 2” value is -0.68. Also, the “av Z” value under setting [2] was -0.208. Also, the av puncta under setting [3] is on record as 17505.3. Also, for the setting “raw puncta”, the “raw data 1” value is 29504.3 and the “raw data 2” value is 5506.25.
